Common to all, as to format: cell-based
The test system of test [1] is MDA-MB-231 estrogen receptor-negative breast cancer cell line. The test is described as follows: […]-GLO luminescent cell viability assay, MDA-MB-231. The following applies: Homo sapiens, MDA-MB-231 cells, 5000 cells/well, 72 h at 37° C. Here is the method:
(§1) All the compounds are tested in three cell lines. Different concentration of compounds, ranging from about 0.01 nM to about 100,000 nM were delivered to 5×10^3 cells per well, which were then incubated for three days at 37° C., followed by CTG assay.
(§2) In this assay, the number of viable cells in culture is determined based on the quantification of ATP present, which signals the presence of metabolically active cells. Damaged cells are not detected as the ATP leaked from these cells is quickly consumed by ATPases that are also released upon damage). The amount of ATP is determined using a system based on luciferase and D-luciferin resulting in light generation.
(§3) The cell lines were plated in 13, 96 well plates at a density of 5000 cells/well in total volumes of 50 μL in phenol-red free medium and incubated for overnight.
(§4) 25 μL of 40 nM estradiol should be added to all appropriate wells on the plate. […] 25 μL of stocks (containing the compounds to be tested, DMSO and phenol-red free medium) were added to cells and medium already on plate. 50 μL of medium were added to media wells, and 50 μL of mix (contain 32 mL DMSO+768 mL phenol-red free medium) to all vehicle control wells.
(§5) Luminescence results were read on TriLux Luminometer. The luminescent signal is proportional to the number of active cells present in culture. […] As a consequence, the number of metabolically active cells can be directly derived from the luminescent signal using a specific calibration curve. Data were expressed as percentage of untreated control (i.e. treatment value-blank/vehicle value blank), mean±SE for three replications.

For test [2], the system named is MCF-7 estrogen receptor-positive breast cancer cells. The test is described as follows: […]-GLO luminescent cell viability assay, MCF-7. The following applies: Homo sapiens, MCF7, MCF-7 cells, 5000 cells/well, 72 h at 37° C. As for the experimental part:
as §1, §2, §3, §4, §5

The subject of test [3] is Ishikawa cells. The test is described as follows: […]-GLO luminescent cell viability assay, Ishikawa. The following applies: Homo sapiens, 5000 cells/well, 72 h at 37° C. Here is the method:
as §1, §2, §3, §4, §5

Converted amounts (≈) assume the structure as drawn.

`COc1ccc(S(=O)(=O)NN2CCc3ccccc3C2)cc1` [Redda-CM-3-13, N-(3,4-dihydroisoquinolin-2(1H)-yl)-4-methoxybenzenesulfonamide]: the IC50 (in general, the concentration needed to halve the response being measured) in test [1] came to 0.76 µg/mL (≈ 2.39 µM); in test [2], 1.27 µg/mL (≈ 3.99 µM); in test [3], 0.45 µg/mL (≈ 1.41 µM).
For `O=C(NN1CCc2ccccc2C1)c1ccccc1` [Redda-GM-3-15, N-(3,4-dihydroisoquinolin-2-(1H)-yl)benzamide], the figures for the half-inhibitory concentration (IC50) in test [1], in test [2] and in test [3] were 0.74 µg/mL (≈ 2.93 µM), 0.63 µg/mL (≈ 2.5 µM) and 0.23 µg/mL (≈ 0.912 µM), respectively.
Consider `COc1ccc(C(=O)NN2CCc3ccccc3C2)cc1` [Redda-GM-3-16, N-(3,4-dihydroisoquinolin-2(1H)-yl)-4-methoxybenzamide], for which the IC50 was found to be 0.78 µg/mL (≈ 2.76 µM) in test [1], 0.93 µg/mL (≈ 3.29 µM) in test [2] and 0.21 µg/mL (≈ 0.744 µM) in test [3].
On to `O=C(NN1CCc2ccccc2C1)c1ccc(Cl)cc1` [Redda-GM-3-18, 4-chloro-N-(3,4-dihydroisoquinolin-2(1H)-yl)bemamide], for which the half-maximal inhibitory concentration (IC50) stood at 0.8 µg/mL (≈ 2.79 µM) in test [1], 0.71 µg/mL (≈ 2.48 µM) in test [2] and 0.61 µg/mL (≈ 2.13 µM) in test [3].
For `Cc1ccc(C(=O)NN2CCc3ccccc3C2)cc1` [Redda-GM-3-19] the same measures were 1.02 µg/mL (≈ 3.83 µM), 0.7 µg/mL (≈ 2.63 µM) and 0.44 µg/mL (≈ 1.65 µM).

These data come from patent US8546426B2, “N-aminotetrahydroisoquinolines as anti-cancer agents” (Florida A&M University Board of Trustees, priority 2011, dated 2013).
